Assay results reported in patent US11739087B2, “Inhibiting (α-v)(β-6) integrin” (Morphic Therapeutic, Inc., priority 2018, dated 2023).

How the values were obtained:
[1] = test system: Madin-Darby Canine Kidney (MDCK) cells; experiment: MDCK permeability assay, wild type MDCK cells with no inhibitor (A→B); assay type: in vitro ADME; conditions: no Pgp inhibitor, apical to basolateral
Method: (§1) Compounds were tested for permeability in an MDCK permeability assay. This assay measures the ability of compounds to cross a layer of Madin-Darby Canine Kidney (MDCK) cells from the apical to basolateral side (A→B). This measurement is predictive of the ability of compounds to be absorbed in the gut following oral dosing, an essential characteristic of an orally administered small molecule integrin inhibitor drug.
(§2) The assay is run in two formats. One uses wild type MDCK cells with no inhibitor. This method works well in determining the passive permeability of compounds with low efflux by P-glyocprotein (Pgp), and was used to assess permeability of a Reference Compound having the chemical formula shown below.
(§3) Cell Culture and Maintenance: • Cell stock cultures (MDCK or MDCK MDR1) are maintained in MEM+10% FBS+1% NEAA, grown in 75 cm^2 tissue culture treated flasks and split (passed) 2 times weekly to maintain desired confluence. • For maintenance passage: trypsinized cells are routinely distributed into new flasks at a standard passage ratio of 1:20.
(§4) Seeding assay plates: MDCK assay plates are seeded with MDCK or MDCK MCR1 cells 3-4 days prior to running the assay. 24-well plates are seeded at a cell density of 0.88×10^5/well in a 400 μL apical chamber volume (2.2×10^5/mL) with a […] volume of growth medium to the 24-well basal chamber. […]

[2] = as above; assay type: in vitro ADME, Canine; conditions: dog, no Pgp inhibitor, apical to basolateral
Method: as §1, §2, §3, §4

- MDCK (A −> B) [1]: less than 0.23
- Papp A→B at 90 min, 5 μM [2]: < 0.23 ×10⁻⁶ cm/s
SMILES: O=C(O)CN1CCC(C(=O)N2CCC(c3ccc4c(n3)NCCC4)CC2)CC1 [Reference Compound]
